Reference: patent publication US10118903B2, “Aminotriazole-based KDM1A inhibitors as epigenetic modulators” (MUSC FOUNDATION FOR RESEARCH DEVELOPMENT, priority 2014, dated 2018)

Target: T1, human recombinant LSD1 (Homo sapiens, UniProt O60341)
T1 construct: purchased Cayman Chemical Item #700120
Experiment: LSD1 inhibitor screening assay (Cayman Chemical kit, fluorometric)
Type: biochemical
Settings: 10 μM compound; Chembridge analogues table
Protocol: LSD1 Inhibitor Screening Assay:
In short, 10 μM of compound was combined with the fluorometic substrate 10-acetyl-3,7-dihydroxyphenoxazine, horseradish peroxidase, human recombinant LSD1, and 100 μM dimethylated lysine at residue 4 [ARTK(diMe)[…]] (Seq. ID No: 1) for 30 mins at 37° C. Plates were read using an excitation wavelength of 535 nm and an emission wavelength of 590 nm with a SpectraMax M5 Microplate reader.

Row | Molecule | inhibition at 10 µM
1 | Fc1ccc(COc2ccc(Cl)cc2CNc2nc[nH]n2)cc1 [Compound C2, N-(5-chloro-2-((4-fluorobenzyl)oxy)benzyl)-1H-1,2,4-triazol-3-amine] | 27.7 ± 9%
2 | Cc1ccc(COc2ccc(Cl)cc2CNc2nn[nH]n2)cc1 [Compound C8, N-(5-chloro-2-((4-methylbenzyl)oxy)benzyl)-2H-tetrazol-5-amine] | 6.9 ± 7.5%
3 | COc1cccc(NCc2nn[nH]n2)c1OCc1ccc(F)cc1Cl [Compound C5, N-((2H-tetrazol-5-yl)methyl)-2-((2-chloro-4-fluorobenzyl)oxy)-3-methoxyaniline] | -3.1 ± 7.8%
4 | Clc1ccc(OCc2ccccc2)c(CNc2nn[nH]n2)c1 [Compound C11, N-(2-(benzyloxy)-5-chlorobenzyl)-2H-tetrazol-5-amine] | 19.9 ± 8.4%
5 | CCOc1cc(Cl)cc(CNc2nc[nH]n2)c1 [Compound C10, N-(3-chloro-5-ethoxybenzyl)-1H-1,2,4-triazol-3-amine] | -3 ± 12.7%
6 | Clc1ccccc1CNc1nc[nH]n1 [Compound C6, N-(2-chlorobenzyl)-1H-1,2,4-triazol-3-amine] | 4.6 ± 6.9%
7 | Clc1cccc(Cl)c1CNc1nc[nH]n1 [Compound C9, N-(2,6-dichlorobenzyl)-1H-1,2,4-triazol-3-amine] | 30.9 ± 7.7%
8 | Clc1ccc(CNc2nc[nH]n2)c(Cl)c1 [Compound C4, N-(2,4-dichlorobenzyl)-1H-1,2,4-triazol-3-amine] | 2.2 ± 6.9%
9 | CCOc1ccc(Cl)cc1CNc1nn[nH]n1 [Compound C14, N-(5-chloro-2-ethoxybenzyl)-2H-tetrazol-5-amine] | 20.8 ± 5%
10 | COc1cccc(CNc2nn[nH]n2)c1OCc1ccccc1Cl [Compound C12, N-(2-((2-chlorobenzyl)oxy)-3-methoxybenzyl)-2H-tetrazol-5-amine] | 22.1 ± 7.3%
11 | COc1cccc(CNc2nnc[nH]2)c1OCc1ccccc1Cl [Compound C7, N-(2((2-chlorobenzyl)oxy)-3-methoxybenzyl)-4H-1,2,4-triazo1-3-amine] | 18.1 ± 8.2%
12 | Fc1ccccc1COc1ccc(Cl)cc1CNc1nc[nH]n1 [Compound C3, N-(5-chloro-2-((2-fluorobenzyl)oxy)benzyl)-1H-1,2,4-triazol-3-amine] | 30.6 ± 6.4%
13 | COc1ccc(Cl)cc1CNc1nn[nH]n1 [Compound C13, N-(5-chloro-2-methoxybenzyl)-2H-tetrazol-5-amine] | 30.8 ± 5.7%

Same assay, conditions: 10 μM compound; synthetic analogues of C1, Table 2

Row | Molecule | inhibition at 10 µM
14 | Nc1n[nH]c(NCc2c(Cl)cccc2Oc2cccc3ccccc23)n1 [Compound M1] | 95.3 ± 2.8%
15 | Nc1nnc(NCc2ccccc2)[nH]1 [Compound 5e] | 41 ± 17.4%
16 | Nc1n[nH]c(NCc2ccccc2Oc2cccc3ccccc23)n1 [Compound M9] | 78.1 ± 2.6%
17 | COc1cc(C)ccc1Oc1cccc(Cl)c1CNc1nnc(N)[nH]1 [Compound 5m, N^3-(2-chloro-6-(2-methoxy-4-methylphenoxy)benzyl)-4H-1,2,4-triazole-3,5-diamine] | 84.7 ± 3.2%
18 | Nc1nnc(NCc2c(Cl)cccc2Oc2ccc(Br)cc2C(F)(F)F)[nH]1 [Compound 5k, N^3-(2-(4-bromo-2-(trifluoromethyl)phenoxy)-6-chlorobenzyl)-4H-1,2,4-triazole-3,5-diamine] | 67.8 ± 5.4%
19 | Nc1n[nH]c(NCc2c(Cl)cccc2Oc2ccc(-c3ccccc3)cc2)n1 [Compound M3] | 66.8 ± 4.4%
20 | Cc1ccc(Oc2cccc(Cl)c2CNc2nnc(N)[nH]2)cc1 [Compound 5b, N^3-(2-chloro-6-(p-tolyloxy)benzyl)-4H-1,2,4-triazole-3,5-diamine] | 59.3 ± 6.1%
21 | Nc1nnc(NCc2c(Cl)cccc2Oc2ccc3c(c2)OCO3)[nH]1 [Compound 5r, N^3-(2-(benzo[d][1,3]dioxol-5-yloxy)-6-chlorobenzyl)-4H-1,2,4-triazole-3,5-diamine] | 65.8 ± 6.4%
22 | Cc1ccc(C(C)C)c(Oc2cccc(Cl)c2CNc2nnc(N)[nH]2)c1 [Compound 5c, N^3-(2-chloro-6-(2-isopropyl-5-methylphenoxy)benzyl)-4H-1,2,4-triazole-3,5-diamine] | 56.3 ± 3.2%
23 | Nc1n[nH]c(NCc2c(Cl)cccc2Oc2ccc(F)cc2)n1 [Compound M6] | 76.4 ± 2.2%
24 | COc1cccc(Oc2cccc(Cl)c2CNc2nnc(N)[nH]2)c1 [Compound 5d, N^3-(2-chloro-6-(3-methoxyphenoxy)benzyl)-4H-1,2,4-triazole-3,5-diamine] | 44.6 ± 5.1%
25 | COc1cc(Oc2cccc(Cl)c2CNc2nc(N)n[nH]2)cc(OC)c1OC [Compound M7] | 67.6 ± 6.2%
26 | CCOc1cc(C)ccc1Oc1ccccc1CNc1nc(N)n[nH]1 [Compound M10] | 73.8 ± 4.4%
27 | CCOc1cc(C)ccc1Oc1cccc(Cl)c1CNc1nc(N)n[nH]1 [Compound M4] | 77.7 ± 2.9%
28 | Nc1nnc(NCc2c(Cl)cccc2Oc2cc(C(F)(F)F)cc(C(F)(F)F)c2)[nH]1 [Compound 5h, N^3-(2-(3,5-bis(trifluoromethyl)phenoxy)-6-chlorobenzyl)-4H-1,2,4-triazole-3,5-diamine] | 44.9 ± 4.6%
29 | COc1ccc(Sc2cccc(Cl)c2CNc2nnc(N)[nH]2)cc1OC [Compound 5t, N^3-(2-chloro-6-((3,4-dimethoxyphenyl)thio)benzyl)-4H-1,2,4-triazole-3,5-diamine] | 53.2 ± 1.7%
30 | CC(C)(C)c1ccc(Oc2cccc(Cl)c2CNc2nnc(N)[nH]2)cc1 [Compound 5f, N^3-(2-(4-(tert-butyl)phenoxy)-6-chlorobenzyl)-4H-1,2,4-triazole-3,5-diamine] | 58.2 ± 8.8%
31 | COc1cc(Oc2ccccc2CNc2nc(N)n[nH]2)cc(OC)c1OC [Compound M8] | 56 ± 4.1%
32 | Nc1n[nH]c(NCc2c(Cl)cccc2Oc2cccc3cc[nH]c23)n1 [Compound M5] | 67.6 ± 3.7%
33 | COc1cc(OC)cc(Oc2cccc(Cl)c2CNc2nnc(N)[nH]2)c1 [Compound 5n, N^3-(2-chloro-6-(3,5-dimethoxyphenoxy)benzyl)-4H-1,2,4-triazole-3,5-diamine] | 63.3 ± 8.6%
34 | Cc1ccccc1Oc1cccc(Cl)c1CNc1nnc(N)[nH]1 [Compound 5q] | 74.2 ± 5.2%
35 | COc1cccc(Cl)c1CNc1nc(N)n[nH]1 [Compound H1] | 73.1 ± 1.6%
36 | Cc1cc(C)cc(Oc2cccc(Cl)c2CNc2nnc(N)[nH]2)c1 [Compound 5g, N^3-(2-chloro-6-(3,5-dimethylphenoxy)benzyl)-4H-1,2,4-triazole-3,5-diamine] | 67.9 ± 6.5%

System: mouse heart
Experiment: Langendorff isolated heart model, ischemia/reperfusion
Settings: 1 hour pre-treatment with 1.0 μM; versus vehicle
Source text: (§1) In the Langendorff preparation, the heart is removed with preservation of a portion of the afferent and efferent blood vessels; it is then perfused in a reverse fashion via the aorta, usually with a nutrient rich, oxygenated solution (e.g. Krebs-Henseleit solution or Tyrode's solution). The backwards pressure causes the aortic valve to shut, forcing the solution into the coronary vessels, which normally supply the heart tissue with blood. This feeds nutrients and oxygen to the cardiac muscle, allowing it to continue beating for several hours after its removal from the animal. This is a useful preparation because it allows the addition of drugs (via the perfusate) and observation of their effect on the heart without the complications involved with in vivo experimentation, such as neuronal and hormonal effects from living animal (Broadley, K. J., 1970). A pressure transducer is inserted to measure a number of cardiac performance parameters including left ventricular developed pressure, left ventricular end diastolic pressure, heart rate, etc. Following the Langendorff procedure, the myocardium is cut into cross sections, and infarcted tissue is identified by the inability to take up stain; thus infarcted areas appear white, while healthy areas appear red.
The compounds described herein may be used to protect the myocardium from injury following an ischemic event. In FIG. 6, a mouse heart was subjected to ischemia by ligation of the afferent vessel in a Langendorff preparation, as described above. Prior to the induction of ischemia, hearts were either pre-treated with vehicle, verlindamycin or C1. […] In FIG. 8, the results of an experiment to measure infarcted tissue in a myocardial cross-section are shown. Results are expressed as a percentage of the area of infarct with respect to total surface area. […] The HDAC1/CoREST/LSD1 complex was pulled down with an LSD1 antibody and a Western blot for CoREST was performed.

Row | Molecule | left ventricular end diastolic pressure
37 | Verlindamycin tetrahydrochloride [Compound 2d, reference compound] | reduced to near-normal levels

Same assay, conditions: pre-treatment before ischemia; after reperfusion; versus vehicle

Row | Molecule | left ventricular developed pressure
38 | Verlindamycin tetrahydrochloride [Compound 2d, reference compound] | restored to nearly normal levels

System: murine myocardium
Experiment: Infarct area in myocardial cross-section after induced myocardial ischemia
Type: in vivo, mouse
Settings: 10 mg/kg; versus vehicle
Source text: as §1, with “Following the Langendorff procedure, the myocardium is cut into cross sections, and infarcted tissue is identified by the inability to take up stain; thus infarcted areas appear white, while healthy areas appear red.” left out
The compounds described herein may be used to protect the myocardium from injury following an ischemic event. […] Results are expressed as a percentage of the area of infarct with respect to total surface area. […]

Row | Molecule | infarct area as a percentage of the total left ventricular area
39 | Verlindamycin tetrahydrochloride [Compound 2d, reference compound] | significantly more effective than treatment with vehicle

System: LSD1:CoREST complex
Experiment: Pull-down of HDAC1/CoREST/LSD1 complex with LSD1 antibody, Western blot for CoREST
Type: cell-based
Settings: primary feline cardiomyocytes, 3 h, 1 μM; LSD1 antibody pull-down
Protocol: Co-immunoprecipitation analysis for LSD1:CoREST complex following treatment from primary rat cardiomyocytes with 5 μM and 1 μM C1 was performed as described above. Lysates pulled down with LSD1 antibody and western blotted for CoREST (n=2).

Row | Molecule | association between LSD1 and CoREST
40 | Verlindamycin tetrahydrochloride [Compound 2d, reference compound] | Only compound C1 disrupted the association

System: not listed separately
Experiment: Solubility noted in the LSD1 screen
Type: physicochemical
Settings: LSD1 screen at 10 μM

Row | Molecule | solubility (reason why % inhibition was not determined)
41 | Nc1nnc(NCc2c(Cl)cccc2Oc2ccc(Br)cc2Br)[nH]1 [Compound 5j] | Not Determined (Insolube)
42 | Nc1nnc(NCc2c(Cl)cccc2Oc2ccc(SC(F)(F)F)cc2)[nH]1 [Compound 5i, N^3-(2-chloro-6-(4-((trifluoromethyl)thio)phenoxy)benzyl)-4H-1,2,4-triazole-3,5-diamine] | Not Determined (Insoluble)
43 | CSc1ccc(Oc2cccc(Cl)c2CNc2nnc(N)[nH]2)cc1 [Compound 5l, N^3-(2-chloro-6-(4-((methyl)thio)phenoxy)benzyl)-4H-1,2,4-triazole-3,5-diamine] | Not Determined (Insolube)
